Assay results published in patent US11859087B2, “Fluorescent dye, preparation method therefor, and application thereof” (SUZHOU BAIYUAN GENT CO., LTD., priority 2018, dated 2024).
Structures can show the parent of a compound that is named as a salt.

Assays:
[1] = Determination of the absorption spectrum of fluorescent dyes; format: physicochemical; details: 1.0×10^−5 mol/L in 50% by volume of ethanol
Text: The compounds prepared in Example 1 and Examples 4-6 were accurately weighed to prepare a solution having a concentration of 1.0×10^−5 mol/L using 50% by volume of ethanol. In FIG. 2, 1 represents the intermediate prepared in Example 1, and 2-4 represent the compound prepared in Examples 4-6, respectively.

[2] = Determination of the fluorescence spectrum of fluorescent dyes; format: physicochemical; details: for λem (max/nm): ethanol and water (50:50, v/v), 1.0×10^−6 mol/L, excitation at maximum absorption wavelength
Experimental: The fluorescence spectrum was measured using the maximum absorption wavelength in the measured near-infrared spectrum as the excitation wavelength of the fluorescence spectrum. The compounds prepared in Example 1 and Examples 4-6 were accurately weighed to prepare a solution of ethanol and water (50:50, v/v) at a concentration of 1.0×10^−6 mol/L. The emission spectrum of the solution was measured, and the result was shown in FIG. 1. In FIG. 1, 1 represents the intermediate prepared in Example 1, and 2-4 represent the compounds prepared in Examples 4-6, respectively.

[3] = Determination of molar extinction coefficient by UV-visible absorption spectroscopy; format: physicochemical; details: A=εcl
Experimental: The molar extinction coefficient of the compound was determined by UV-visible absorption spectroscopy. The formula for calculating molar extinction coefficient is as shown in equation (1): A=εcl Equation (1), wherein A represents ultraviolet absorption value, ε represents molar extinction coefficient, c represents concentration of the compound, and l represents thickness of the quartz cell for detection.

[4] = Determination of fluorescence quantum yield of fluorescent dyes; format: physicochemical; details: 20° C., absolute ethanol, quinine sulfate as reference
Experimental: The fluorescence quantum yield of the fluorescent dyes was determined at 20° C., and quinine sulfate (Solvent: 0.1M H2SO4, Quantum yield: 0.56) was used as a reference compound, then the fluorescence quantum yield was calculated by measuring fluorescence integral intensities obtained from the dilute solutions of the fluorescent dyes and the reference compound under the same excitation conditions and the ultraviolet absorption value at this excitation wavelength. The product was dissolved in absolute ethanol.
The formula for calculating fluorescence quantum yield is as shown in equation (2):
[formula] wherein Φ represents quantum yield of the compound to be measured, the subscript R represents reference compound, I represents fluorescence integral intensity, A represents ultraviolet absorption value, and η represents solvent refractive index. Generally, the ultraviolet absorption values A and AR are less than 0.1.

[5] = reference compound, solvent 0.1M H2SO4; cited from earlier work

SMILES | λabs (max/nm) [1] [nm] | Stokes shift (nm) [2] [nm] | λem (max/nm) [2] [nm] | ε × 10^4 (M^−1 cm^−1) [3] | Φ (%) [4] [%] | Quantum yield [5]
CC1(C)C(/C=C/C2=C(NCC(=O)O)C(=C/C=C3/N(/C=C/Br)c4ccccc4C3(C)C)/CCC2)=[N+](/C=C/Br)c2ccccc21 [Example 4] | 785 | 38 | 815 | 8.5 × 10^4 M^−1 cm^−1 | 84.99 | –
CC1(C)C(/C=C/C2=C(NCO)C(=C/C=C3/N(/C=C/Br)c4ccccc4C3(C)C)/CCC2)=[N+](/C=C/Br)c2ccccc21 [Example 5] | 787 | 40 | 820 | 8.6 × 10^4 M^−1 cm^−1 | 86.00 | –
CC1(C)C(/C=C/C2=C(NCc3cccc(C(=O)O)c3)C(=C/C=C3/N(/C=C/Br)c4ccccc4C3(C)C)/CCC2)=[N+](/C=C/Br)c2ccccc21 [Example 6] | 790 | 34 | 829 | 9.0 × 10^4 M^−1 cm^−1 | 89.86 | –
C=C[C@H]1C[N@@]2CC[C@H]1C[C@H]2[C@H](O)c1ccnc2ccc(OC)cc12 [quinine sulfate] | – | – | – | – | – | 0.56
